Like-named read-outs stand apart in the source and are kept apart here.
Legend:
[1] = tested on: HPRT+ neuroblastoma cells; assay: Adenosine excretion by stimulated HPRT+ neuroblastoma cells; type: cell-based; details: 50 μM AICA riboside, calcium ionophore A23187, 1.0 μM deoxycoformycin
Procedure: To induce ATP catabolism, the growth medium was replaced by medium containing micromolar amounts of the calcium ionophore A23187 and 1.0 μM deoxycoformycin.

[2] = tested on: ischemic myocardium; type: in vivo, dog; details: vs saline-treated animals, 5 and 60 minutes of ischemia
Excerpt: Thirteen mongrel dogs were anesthetized with phenobarbital. […] C.V. Dis. 20; 55 (1977).

[3] = tested on: ischemic myocardium; assay: Inosine levels in venous blood of dogs during coronary artery occlusion; type: in vivo, dog; details: over the 60-minute assay period, vs saline
Excerpt: Thirteen mongrel dogs were anesthetized with phenobarbital. […] C.V. Dis. 20; 55 (1977). […] Two of the surviving saline-treated animals fibrillated. […] That the increase in the levels of adenosine is due, at least in part, to a reduction in the amount of ATP that is converted to inosine was shown by analysis of venous blood from dogs in Example III for inosine levels.

[4] = tested on: adenylosuccinase deficiency (autism); assay: Therapeutic trial of oral AICA riboside in patients with adenylosuccinase deficiency (autism); type: in vivo, human
Excerpt: Following authorization, therapeutic trials with AICA riboside were started in two patients with adenylosuccinase deficiency (autism). […] On Day 55, both patients were briefly readmitted for clinical, biochemical and psychiatric evaluation. […] Treatment was maintained until Day 71, and arrested at that date. […] A correct assessment of the renal loss of the nucleoside could not be obtained. […] The following parameters were found normal before and during the trial treatment with AICA riboside: red blood cell count, white blood cell count, platelet and reticulocyte counts; leukocyte differentiations; hematocrit, ionogram, Ca, phosphate, urea, creatinine, uric acid, cholesterol, lipids, SGOT, SGPT, CPK, glucose, lactate and ammonia.

[5] = tested on: mast cells; assay: AICA riboside: mast cell leukotriene C4 release; type: cell-based, mouse; details: 100 μM pretreatment for six days
[6] = tested on: pentylene tetrazol-induced seizures; assay: Suppression of pentylene tetrazol-induced seizures; type: in vivo, rat; details: 2000 mg/kg (total dose) intraperitoneal
[7] = Phase 2 CABG trial: plasma AICA riboside concentrations and clearance; type: in vivo; details: human, intravenous, low and high doses, pre- and post-bypass, read-out: total plasma clearance (CLp) (converted)
Procedure: 10. Plasma Levels. […] Individual values and group means were tabulated and drug clearance calculated. Dose proportionality was assessed.
The data are also presented graphically in FIG. 18.

[8] = tested on: patients undergoing CABG surgery
[9] = tested on: patients undergoing CABG surgery; type: in vivo; details: 0.05 mg/kg/min
[10] = plasma level 3.00–4.00 μg/ml, n = 44
[11] = plasma level 4.00–5.00 μg/ml, n = 61

## NC(=O)c1ncn([C@@H]2O[C@H](CO)[C@@H](O)[C@H]2O)c1N [1 (1-110), 5-amino-1-β-D-ribofuranosyl-imidazole-4-carboxamide]
[1]
  adenosine secreted vs control cells: at least twofold more adenosine than control cells
[2]
  regional myocardial blood flow to the ischemic myocardium: significantly greater
[3]
  inosine levels: more than twofold decrease
[4]; oral 5 mg/kg/day up to 2×10 mg/kg/day
  side effects: No clinical or biochemical side effects were observed
[4]; oral, all dosages used
  AICA riboside in plasma and CSF: could not be detected
[4]; younger patient, older patient without modification
  autistic features after two months of continuous administration: clear-cut improvement
[5]
  Leukotriene C4 release reduced by: 75%
[6]
  latency to seizure: dramatic prolongation of latency to seizure
[7]
  clearance: ~1.2 L/h/kg
[8]; Low Dose, n = 214
  Cardiac Death, incidence: 5 (2.3%)
  Cerebrovascular Accident, incidence: 2 (0.9%)
  Combined Clinical Outcomes, incidence: 23 (10.7%)
  Congestive Heart Failure, incidence: 6 (2.8%)
  Life-Threatening Dysrhythmia, incidence: 9 (4.2%)
[8]; high dose vs placebo
  decrease in incidence of MI: 68%
  decrease in incidence of cerebrovascular accident: 88%
  reduction in the incidence of combined outcomes: 61%
[8]; high dose, placebo 24.1%
  incidence of myocardial infarction by either ECG or CK-MB: 20.8%
[8]; plasma level 0.25–2.00 μg/ml, n = 83
  Myocardial Infarction MI, incidence: 2 (2.4%)
[8]; plasma level 0.25–2.00 μg/ml, n = 89
  Combined Clinical Outcome, incidence: 9 (10.1%)
[8]; plasma level 2.00–3.00 μg/ml, n = 114
  Myocardial Infarction MI, incidence: 5 (4.4%)
[8]; plasma level 2.00–3.00 μg/ml, n = 116
  Combined Clinical Outcome, incidence: 11 (9.5%)
[8]; [10]
  Combined Clinical Outcome, incidence: 3 (6.8%)
  Myocardial Infarction MI, incidence: 1 (2.3%)
[8]; [11]
  Combined Clinical Outcome, incidence: 2 (3.3%)
  Myocardial Infarction MI, incidence: 0
[8]; plasma level 5.00–6.00 μg/ml, n = 49
  Myocardial Infarction MI, incidence: 2 (4.1%)
[8]; plasma level 5.00–6.00 μg/ml, n = 50
  Combined Clinical Outcome, incidence: 3 (6.0%)
[8]; plasma level <0.25 μg/ml, n = 209
  Myocardial Infarction MI, incidence: 9 (4.3%)
[8]; plasma level <0.25 μg/ml, n = 211
  Combined Clinical Outcome, incidence: 29 (13.7%)
[8]; plasma level >6.00 μg/ml, n = 44
  Myocardial Infarction MI, incidence: 1 (2.3%)
[8]; plasma level >6.00 μg/ml, n = 46
  Combined Clinical Outcome, incidence: 4 (8.7%)
[9]
  effect of low-dose acadesine on outcome: no significant effect on any outcome measure
